We go through 88 molecules from a melting point compilation (Tetko et al.; mined from patent text by program, amines drawn as free bases though some values may be those of a salt).

A value given as a limit tells only on which side of the number the result lay.

On to `Cc1cccc(NC(=O)NCC(=O)N(CC(=O)NC(C)(C)C)c2ccccc2)c1`, for which the melting point (in general, the temperature, or range, at which the solid turns liquid) is 214 °C.

With `CC(C)(C)c1cc(-c2ccccc2)c(Oc2cccc(C#N)c2C#N)c(-c2ccccc2)c1`, the melting point is 189 to 192 °C.

The molecule `CC(C)(O)C1CCN(Cc2ccc(C#CC(=O)Nc3ccc(-c4ccc(Cl)cc4)cc3)cc2)CC1` had a melting point of 194 to 195 °C.

`C#Cc1cnc(C)c(O)c1CO`: the melting point is 170 to 171 °C.

As for `Cc1ccc([N+](=O)[O-])c(CC2NC(=O)NC2=O)c1C` (stereo not drawn), the melting point was 172 to 174 °C.

The molecule `O=C(O)COc1ccc(CN2C(=O)C3(COc4cc5c(cc43)OCCO5)c3ccccc32)cc1` (stereo not drawn) had a melting point of 223 to 224 °C.

The molecule `CC1(C(=O)Nc2cnc(Cl)c(Cl)c2)CC1` registered a melting point of 115 to 117 °C.

Molecule `COc1ccc(C(=O)Nc2ccc(F)c(F)c2)cc1NCc1cccs1` had a melting point of 172 to 174 °C.

For the molecule `Cc1nc(-c2ccc(Cl)cc2)n(-c2ccc(S(N)(=O)=O)cn2)n1`, the melting point lay within 215 to 217 °C.

Molecule `Nc1cc(-n2ncc(Cl)c(Cl)c2=O)c(F)cc1Cl` showed a melting point of 186 °C.

In turn, `CC(=O)OCc1c(Br)cnc2c(NC(=O)c3c(Cl)cccc3Cl)cccc12` registered a melting point of 201 to 202 °C.

Regarding `COC(=O)c1ccc(-c2nc(-c3ccc(C(F)(F)F)cc3)no2)c(NC(=O)C(F)(F)F)c1`, the melting point is 188 to 189 °C.

As to `Cc1nnn2c1CO[C@H]1CN(C(=O)OC(C)(C)C)C[C@@H]12`, the melting point fell in the range of 195 to 196 °C.

In turn, `Clc1ccc2c(c1)C(c1ccccc1)=NCc1nnc(CCOCc3ccccc3)n1-2` returned a melting point of 115 to 117 °C.

Molecule `CC(C)c1coc(=O)n1-c1cc(F)c(C#N)cc1F` registered a melting point of 83 °C.

`C[C@@H](n1cnc2cc(-c3ccc([N+](=O)[O-])cc3)sc2c1=O)[C@](O)(Cn1cncn1)c1ccc(F)cc1F` showed a melting point of 272 to 273 °C.

The molecule `CCCCC(=O)C(=C1NCCCS1)[N+](=O)[O-]` registered a melting point of 61.5 to 64 °C.

Regarding `O=C(CN1CCC(Cc2ccc(F)cc2)CC1)Nc1cccc(NCc2ccccc2)c1`, the melting point is 98 to 100 °C.

As to `COC(=O)C1CCN(CCc2ccc(OC)cc2)CC1`, the melting point lay within 66 to 68 °C.

Regarding `O=C(O)Cc1ccc2c(c1)Cc1cccnc1O2`, the melting point worked out at 218 °C.

`CN1CCCC(n2nc(-c3c(-c4ccccc4)nn4ccccc34)ccc2=O)C1` (stereo not drawn) returned a melting point of 126 to 127 °C.

Consider `CC(=O)N(C)C(CCCC(=O)O)C(=O)N(C)c1c(I)cc(I)c(C(=O)O)c1I` (stereo not drawn), for which the melting point was 194 to 204 °C.

Turning to `CCCCNc1nc(N)nc2c1ncn2C1C=CC(CO)C1` (stereo not drawn), the melting point was 116 to 118 °C.

The molecule `CCOCCS(=O)(=O)c1nc[nH]n1` showed a melting point of 91.5 to 92.5 °C.

Take `COC(=O)/C=C/c1cc(C)cc(NC(C)=O)n1`: the melting point was 139 °C.

Molecule `CCCCCCCCOC(=O)CCCCCNC(=O)c1cc(OCc2ccccc2)ccc1OCc1ccccc1` had a melting point of 48 to 50 °C.

For `CCOC(=O)CC1CCc2cc3ccccc3n2C1` (stereo not drawn), the melting point was in the range of 66 to 68 °C.

As to `CCOC(=O)C1[C@@H]2[C@@H](O)[C@@H]3O[C@H](c4ccc(C(C)(C)C)cc4)OC[C@H]3O[C@H]12` (stereo partly drawn), the melting point lay within 113 to 116 °C.

In turn, `COc1cc(C)c(C)cc1NC(=O)N1CCN(c2cc(-c3ccccc3)ccc2OC)CC1` came in with a melting point of 139 to 140 °C.

Molecule `O=[N+]([O-])c1c(O)c(O)cc2ccccc12` yielded a melting point of 141 to 143 °C.

`COCOc1ccc(CCCOc2nn(C)cc2CC(=O)O)c(Oc2ncc(C(F)(F)F)cc2Cl)c1` gave a melting point of 122 to 123 °C.

In the case of `Cc1csc(NC(=O)C2(CN3CCN(c4nc(C)cs4)C3=O)C=CC=CC2)n1` (stereo not drawn), the melting point fell in the range of 197 to 198 °C.

Molecule `COc1cc2c(cc1OC)CN(CCCSc1ccc(NC(=O)c3cccc4c(=O)c5cccc(F)c5[nH]c34)cc1)CC2` displayed a melting point of 162 °C.

Regarding `COC(=O)C1=C(C(OC)OC)NC(C)=C(C(=O)OCC(C)C)C1c1ccccc1C#N` (stereo not drawn), the melting point lay in the range of 126 to 128 °C.

On to `O=C1NC(=S)SC1=Cc1ccc2c(c1)N(OCc1ccccc1)C(=O)CO2`, for which the melting point was over 300 °C.

`CC(=O)CCCn1c(=O)c2c(ncn2C)n(C)c1=O` registered a melting point of 109 to 111 °C.

For the molecule `CC(=O)C(c1ccccc1)c1cccc2c1NCC2` (stereo not drawn), the melting point lay in the range of 55 to 56 °C.

Consider `CSc1ccc(C(O)c2occc(=O)c2OCc2ccccc2)cc1` (stereo not drawn), for which the melting point fell in the range of 82 to 82.5 °C.

For the molecule `CCOC(=O)C(=NO)c1cccnc1`, the melting point lay in the range of 137 to 138 °C.

Molecule `Cc1oc(-c2ccccc2)nc1COc1ccc(OCc2nc(-c3ccccc3)oc2CO)cc1` had a melting point of 157 to 158 °C.

`NC(=O)/C=C1/c2cc(F)cc(F)c2CC1O` (stereo not drawn): the melting point is 235 to 237 °C.

Regarding `COc1ccc(C(=O)Nc2ccc(-c3ccc(S(C)=O)cc3)cc2)cc1CCCN(C)C` (stereo not drawn), the melting point lay in the range of 190 to 192 °C.

`Cn1cc(-c2cccc(N3Cc4cc(C(C)(C)C)ccc4C3=O)c2CO)cc(Nc2ccc(C3CN(C(=O)OC(C)(C)C)C3)cn2)c1=O` yielded a melting point of 151 to 152 °C.

`CC(O)c1ccc(NS(C)(=O)=O)c(Sc2ccc(Cl)cc2Cl)c1` (stereo not drawn) yielded a melting point of 91 to 94 °C.

`N#CC(Nc1ccccc1[N+](=O)[O-])c1c(Cl)cccc1Cl` (stereo not drawn) had a melting point of 195 °C.

For the molecule `COCCN1CCN(Cc2ccc3c(c2)-c2[nH]nc(-c4ccsc4)c2C3)CC1`, the melting point is 140 to 142 °C.

In turn, `CCCc1c2nc(C(=O)OC)cc(N)c2cc2c(=O)cc(C(=O)OCC)oc12` had a melting point of 267 to 270 °C.

As to `CN(C)c1ccc(C(O)C#Cc2ccncc2)cc1` (stereo not drawn), the melting point came to 117 °C.

The molecule `OCCc1cc2c(cc1Cc1ccccc1)OCO2` gave a melting point of 64 to 65 °C.

In the case of `C#CC(O)(c1ccccc1)c1ccncc1` (stereo not drawn), the melting point was 165 to 166 °C.

For `COc1cc(-c2csc(C(=N)NO)n2)cc(Cl)c1OC`, the melting point lay within 169 to 170 °C.

`Cc1ccc(C(=O)c2c(C)c(C(=O)O)c(CC(=O)O)n2C)cc1` displayed a melting point of 229 to 230 °C.

In turn, `CC(C)N(C(C)C)S(=O)(=O)N[C@@H](Cc1ccc(NC(=O)c2c(Cl)cncc2Cl)cc1)C(=O)O` yielded a melting point of 151 °C.

In turn, `CCCc1c(C(=O)O)c(=O)cc(-c2ccc(Cl)cc2)n1C` registered a melting point of 184 to 187 °C.

Molecule `CCOc1ccc(C2=NNCCC2)cc1OCC` yielded a melting point of 77 to 78 °C.

`Cc1c(C)c2c(c(C)c1OCc1ccccc1)CCC(C)(C(=O)O)O2` (stereo not drawn) registered a melting point of 154 to 155 °C.

Turning to `CCCCCc1ccc(OCC(=O)O)c(CCCCC)c1`, the melting point was in the range of 115 to 120 °C.

Molecule `COc1ccc(-c2c(Cl)c(CN3C(=O)CCC3=O)nc3sc4c(c23)CCC(=O)C4(C)C)cc1` registered a melting point of 245 to 246 °C.

The molecule `CC1(c2oncc2C(=O)c2ccc(S(C)(=O)=O)cc2C(F)(F)F)CC1` showed a melting point of 141 to 142 °C.

`CCCc1nnc2c3cccc(Br)c3ccn12` registered a melting point of 197 to 199 °C.

For the molecule `COC(=O)C1=C(C(OC)OC)NC(C)=C(c2nc(CCl)no2)C1c1cccc([N+](=O)[O-])c1` (stereo not drawn), the melting point was 141 to 142 °C.

As to `CCOC(=O)c1c(-c2ccc(F)cc2)cc(-c2cccc3ccccc23)nc1C(C)C`, the melting point was 113 to 115 °C.

Regarding `CSC(=NS(=O)(=O)N1CCCCC1)N1CC(c2ccccc2)C(c2ccc(Cl)cc2)=N1` (stereo not drawn), the melting point is 192 to 194 °C.

For the molecule `Cc1cc([N+](=O)[O-])c(NC(C)C(=O)O)c([N+](=O)[O-])c1` (stereo not drawn), the melting point is 158 to 161 °C.

In turn, `Cc1cc(=O)n(C(=O)Oc2c(C(=O)c3ccc(Cl)cc3Cl)c(C)nn2C)o1` gave a melting point of 180 to 182 °C.

For the molecule `CC(C)(C)[Si](C)(C)OCCn1nc(C=O)cc1C=O`, the melting point fell in the range of 63 to 64 °C.

`O=C(Cc1ccccc1C(=O)O)Nc1cccc(/C=C/c2nc(C3CCCCC3)cs2)c1` had a melting point of 210 to 211 °C.

The molecule `C[Si]1(C)CCCCCCCCCC[Si](C)(C)O[Si](C)(C)CCCCCCCCCC[Si](C)(C)O1` displayed a melting point of 90 °C.

For the molecule `COC=C(C(=O)OC)C1(c2ccc(OC)cc2)CC=C2C=CC=C2O1` (stereo not drawn), the melting point was determined as 124 °C.

As to `CC(C)(C)OC(=O)N[C@H](Cc1cn(Cc2ccccc2)c2ccccc12)C(=O)O`, the melting point fell in the range of 164 to 165 °C.

Molecule `CS(=O)(=O)c1ccc(-c2ccccc2Cc2cccc(F)c2)cc1` gave a melting point of 97 to 98 °C.

`CCOC(=O)c1c(O)c2cccnc2n(Cc2ccccc2)c1=O` yielded a melting point of 143 °C.

For the molecule `CCOC(=O)c1cc2ccccc2nc1C(Cl)(Cl)Cl`, the melting point was 66 to 75 °C.

`Cn1nc(C(O)c2ccccc2)nc1NCC(O)COc1cccc(CN2CCCCC2)c1` (stereo not drawn) registered a melting point of 154 to 157 °C.

Molecule `Cc1c(-c2ccccc2)n[nH]c1OCCN1CCOCC1` displayed a melting point of 100 °C.

`CC(c1ccc(OCCO)cc1)(c1ccc(OCCO)cc1)c1ccc(OCCO)cc1` gave a melting point of 78 to 81 °C.

For the molecule `COc1cc(Nc2c(C#N)cnc3sc(C)cc23)c(Cl)cc1Cl`, the melting point is 179 to 181 °C.

In turn, `COc1cc(Nc2ncnc3cc(OCC4CCCCO4)c(OC)cc23)c(OC)cc1Cl` (stereo not drawn) yielded a melting point of 203 to 209 °C.

Turning to `Cc1nc2cccc(OCC=CCN3CCN(C4c5ccccc5CCc5ccccc54)CC3)c2s1`, the melting point was determined as 114 °C.

With `Nc1cccc(Cl)c1O`, the melting point fell in the range of 113 to 114 °C.

Turning to `O=C(O)Cc1ccc2c(c1)Cc1ccccc1C(=O)C2`, the melting point lay within 186 to 188 °C.

For `CCCCC1=Nc2ccccc2SN1`, the melting point was 153 to 155 °C.

`CC(C)(C)c1ccc(C(=O)C(Cl)Cl)cc1` showed a melting point of 47 to 49 °C.

Molecule `COc1cccc(CC(=O)O)c1OCc1nc(OC(C)C)c(C(=O)NCc2ccc(Cl)cc2Cl)s1` came in with a melting point of 113 to 114 °C.

Regarding `CCc1ccc(OCC2CO2)cc1` (stereo not drawn), the melting point is 73.5 to 74.2 °C.

`Cc1oc(-c2ccccc2)nc1COc1ccc(Cn2cc(CCCC(=O)O)c(-c3ccccc3)n2)cc1` gave a melting point of 118 to 119 °C.

Regarding `CCNC(=O)c1ccc(N2CCN(Cc3cc(C)c4c(c3)NC(=O)C(C)O4)CC2)c(Cl)c1` (stereo not drawn), the melting point lay within 227 to 228 °C.

In turn, `CC1=NC(NC(=O)Nc2cccc(C)c2)C(=O)N(CC(=O)C2CCCC2)c2c(C)cccc21` (stereo not drawn) had a melting point of 150 to 156 °C.
